Patent US9221761B2, “Method for inhibition of deubiquitinating activity” (Vivolux AB, priority 2011, dated 2015)

What was measured:
[1] = system: HCT116; assay: FMCA (Fluorometric Microculture Cytotoxicity Assay) cytotoxicity; assay type: cell-based; details: 72 hours of continuous compound exposure
Description: FIGS. 1a to 1o are diagrams illustrating induction of dose-dependent cytotoxicity after 72 hours of continuous compound exposure to the reporter cell line HCT-116 by embodiments of the compound of the invention, as measured FMCA (Fluorometric Microculture Cytotoxicity Assay), as well as absence of such induction by structurally related compounds not comprised by the invention. Treated cells were compared to untreated controls (survival index);
Determination of cell apoptosis and viability. For determination of apoptosis parental HCT-116 p53+/+ cells are treated with the increasing doses of the compound of the invention for 24 h. […] HCT-116 cells are seeded in 96-well microtiter plates at 10,000 cells per well and incubated overnight. Cells are treated with indicated drug for 24 h. At the end of the incubation period, NP40 is added to the tissue culture medium to 0.1% and 25 μl of the content of each well was assayed using the M30-Apoptosense® ELISA as previously described (31). Cell viability is determined by measuring acid phosphatase activity or using the FMCA method (32). For the acid phosphatase activity cells are seeded at 5000 cells per well in 96-well culture plates and incubated for 12 h at 37° C. Compounds are added to the cells in growth media and incubated for 72 h at 37° C. Cells are washed with 200 μl warm PBS. 100 μl of para-nitrophenyl phosphate (pNPP, 2 mg/ml) in Na acetate buffer pH 5 (NaAc 0.1 M, 0.1% Triton-X-100) is added per well. Cells are incubated for 2 h after which reaction was stopped by addition of 1N NaOH. Absorbance is measured at 405 nm. The dose-dependent cytotoxicity of a number of embodiments of the compound of the invention is illustrated in FIGS. 1a-1o.
For the FMCA assay cells are seeded in the drug-prepared 384-well plates using the pipetting robot Precision 2000 (Bio-Tek Instruments Inc., Winooski, Vt.). The plates are incubated for 72 h and then transferred to an integrated HTS SAIGAN Core System consisting of an ORCA robot (Beckman Coulter) with CO2 incubator (Cytomat 2C, Kendro, Sollentuna, Sweden), dispenser module (Multidrop 384, Titertek, Huntsville, Ala.), washer module (ELx 405, Bio-Tek Instruments Inc), delidding station, plate hotels, barcode reader (Beckman Coulter), liquid handler (Biomek 2000, Beckman Coulter) and a multipurpose reader (FLUOstar Optima, BMG Labtech GmbH, Offenburg, Germany) for automated FMCA. Survival index (SI) is defined as the fluorescence of test wells in percentage of controls with blank values subtracted.
FIGS. 3b, 3d, 3f are diagrams illustrating the cytotoxicity of compounds of the invention nos. 1546, 1547, and 1570 with a 7-membered ring moiety in comparison to structurally corresponding compounds not comprised by the invention with a 6-membered ring moiety. Their induction of dose-dependent cytotoxicity was determined after 72 hours of continuous compound exposure to the reporter cell line HCT-116. Treated cells were compared with untreated controls. Cytotoxicity is visualized as survival index (SI) over the range of about 90% SI to about 0% SI in dependence on compound concentration.

[2] = system: MelJuSo Ub-YFP reporter cell line; assay: Proteasome inhibition in reporter cell line, YFP accumulation in IncuCyte-FLR; assay type: cell-based; details: YFP accumulation measured for 48 hours; for MeJuSo-UB, lowest effective conc.: Table 2
Excerpt: Cell culture. MCF7 cells are maintained in MEM/10% fetal calf serum. HCT-116 p53+/+, p53−/−, Bcl-2+/+, PUMA−/− and BAX−/− cells are maintained in McCoy's 5A modified medium/10% fetal calf serum. The HCT-116 p53+/+, p53−/−, PUMA−/− and BAX−/− are generated as described (25). The HCT-116 Bcl-2+/+ cell line was generated by transfecting parental HCT-116 p53+/+ cells with pCEP4 Bcl-2 (Addgene plasmid 16461) (26) and isolating high expression clones. FaDu and LLC3 cells are maintained in DMEM high glucose medium supplemented with 10% fetal calf serum, Na pyruvate, Hepes and non-essential amino acids. 4T1.12B carcinoma cells are maintained in RPMI medium supplemented with 10% fetal calf serum. The proteasome reporter cell line MelJuSo Ub-YFP was generated as described (12). Cells were maintained in Dulbecco's Modified Eagle's Medium/10% fetal calf serum. […] The retinal epithelial cell line was generated as described (28). All cells are maintained at 37° C. in 5% CO2.
The compound of the invention induces proteasome inhibition. The reporter cell line MelJuSo Ub-YFP, which is engineered to accumulate yellow fluorescent protein (YFP) upon proteasome inhibition (12), was used for compound evaluation. The accumulation of YFP was measured for 48 hours in an IncuCyte-FLR system (Essen Bioscience, Essen, UK), which is an automated fluorescence microscope. Numbers of positive cells per field were used as a measure of proteasome inhibition.

Structure (SMILES)	IC50 ([1]; Table 1) [nM]	MeJuSo-UB, IncuCyte lowest effective conc. ([2]; Table 1) [µM]	IC50 ([1]; Table 2) [nM]	MeJuSo-UB, lowest effective conc. [2] [µM]	MeJuSo-UB, IncuCyte lowest effective conc. (μM) ([2]; Table 1)
COc1ccc(C=C2CN(C)CCC(=Cc3ccc([N+](=O)[O-])cc3)C2=O)cc1 [Compound 1588]	3100	1	–	–	–
CN1CCC(=Cc2ccc(Cl)cc2)C(=O)C(=Cc2ccc(F)cc2)C1 [Compound 1589]	2500	1	–	–	–
COc1ccc(C=C2CN(C)CCC(=Cc3ccc(Cl)cc3)C2=O)cc1 [Compound 1590]	2000	1	–	–	–
O=C1C(=Cc2ccc([N+](=O)[O-])cc2)CCNCC1=Cc1ccc(Cl)cc1 [Compound 1591]	900	0.5	–	–	–
O=C1C(=Cc2ccc(Cl)cc2)CCNCC1=Cc1ccc([N+](=O)[O-])cc1 [Compound 1592]	12000	4	–	–	–
CN1CCC(=Cc2ccc([N+](=O)[O-])cc2)C(=O)C(=Cc2ccc(F)cc2)C1 [Compound 1593]	2900	1	–	–	–
CN1CCC(=Cc2ccc([N+](=O)[O-])cc2)C(=O)C(=Cc2ccc(Cl)cc2)C1 [Compound 1594]	2600	1	–	–	–
CN1CCC(=Cc2ccc(F)cc2)C(=O)C(=Cc2ccc(Cl)cc2)C1 [Compound 1595]	2300	1	–	–	–
O=C1C(=Cc2ccc([N+](=O)[O-])cc2)CCNCC1=Cc1ccc(F)cc1 [Compound 1596]	2600	2	–	–	–
CC(=O)N1CCC(=Cc2ccc([N+](=O)[O-])cc2)C(=O)C(=Cc2ccc(Cl)cc2)C1 [Compound 1597]	–	–	1300	1	–
CN1CCC(=Cc2ccc(F)c(Cl)c2)C(=O)C(=Cc2ccc(F)c(Cl)c2)C1 [Compound 1608]	1800	1	–	–	–
CN1CCC(=Cc2ccc(F)c(C(F)(F)F)c2)C(=O)C(=Cc2ccc(F)c(C(F)(F)F)c2)C1 [Compound 1609]	1400	1	–	–	–
CN1CCC(=Cc2ccc(F)c(F)c2)C(=O)C(=Cc2ccc(F)c(F)c2)C1 [Compound 1610]	1700	1	–	–	–
O=C1C(=Cc2cc(F)cc(C(F)(F)F)c2)CCNCC1=Cc1cc(F)cc(C(F)(F)F)c1 [Compound 1611]	1100	0.5	–	–	–
CN1CCC(=Cc2cc(F)cc(C(F)(F)F)c2)C(=O)C(=Cc2cc(F)cc(C(F)(F)F)c2)C1 [Compound 1612]	700	0.25	–	–	–
O=C1C(=Cc2ccc([N+](=O)[O-])cc2)CCNCC1=Cc1ccc([N+](=O)[O-])cc1 [Compound 1613]	25000	32	–	–	–
CN1CCC(=Cc2ccc([N+](=O)[O-])cc2)C(=O)C(=Cc2ccc([N+](=O)[O-])cc2)C1 [Compound 1614]	7400	8	–	–	–
CN1CCC(=Cc2ccc(Cl)c(C(F)(F)F)c2)C(=O)C(=Cc2ccc(Cl)c(C(F)(F)F)c2)C1 [Compound 1615]	900	0.5	–	–	–
CN1CCC(=Cc2ccc(C(F)(F)F)cc2)C(=O)C(=Cc2ccc(C(F)(F)F)cc2)C1 [Compound 1617]	1600	1	–	–	–
CN1CCC(=Cc2ccc(F)c(C#N)c2)C(=O)C(=Cc2ccc(F)c(C#N)c2)C1 [Compound 1618]	1500	0.5	–	–	–

Structure (SMILES)	IC50 ([1]; Table 1) [nM]	MeJuSo-UB, IncuCyte lowest effective conc. ([2]; Table 1) [µM]	IC50 ([1]; Table 2) [nM]	MeJuSo-UB, lowest effective conc. [2] [µM]	MeJuSo-UB, IncuCyte lowest effective conc. (μM) ([2]; Table 1)
CN1CCC(=Cc2cccc([N+](=O)[O-])c2)C(=O)C(=Cc2cccc([N+](=O)[O-])c2)C1 [Compound 1620]	> 32000	–	–	–	no effect
CN1CCC(=Cc2ccc(C#N)cc2)C(=O)C(=Cc2ccc(C#N)cc2)C1 [Compound 1621]	4500	2	–	–	–
O=C1C(=Cc2ccc(F)c(C(F)(F)F)c2)CCNCC1=Cc1ccc(F)c(C(F)(F)F)c1 [Compound 1622]	800	0.5	–	–	–
N#Cc1cc(C=C2CCNCC(=Cc3ccc(F)c(C#N)c3)C2=O)ccc1F [Compound 1623]	1000	0.5	–	–	–
CN1CCC(=Cc2ccc(C(F)(F)F)c(F)c2)C(=O)C(=Cc2ccc(C(F)(F)F)c(F)c2)C1 [Compound 1624]	1800	1	–	–	–
N#Cc1ccc(C=C2CCNCC(=Cc3ccc(C#N)cc3)C2=O)cc1 [Compound 1625]	900	0.5	–	–	–
O=C1C(=Cc2ccc(C(F)(F)F)c(F)c2)CCNCC1=Cc1ccc(C(F)(F)F)c(F)c1 [Compound 1626]	800	8	–	–	–
CC(=O)N1CCC(=Cc2ccc(C(F)(F)F)cc2)C(=O)C(=Cc2ccc(C(F)(F)F)cc2)C1 [Compound 1627]	–	–	700	1	–
CC(=O)N1CCC(=Cc2ccc(F)c(F)c2)C(=O)C(=Cc2ccc(F)c(F)c2)C1 [Compound 1628]	–	–	2300	1	–
CC(=O)N1CCC(=Cc2cc(F)c(F)c(F)c2)C(=O)C(=Cc2cc(F)c(F)c(F)c2)C1 [Compound 1629]	–	–	600	1	–
CC(=O)N1CCC(=Cc2ccc(Cl)c(F)c2)C(=O)C(=Cc2ccc(Cl)c(F)c2)C1 [Compound 1630]	–	–	900	0.5	–
CC(=O)N1CCC(=Cc2ccc(F)c(Cl)c2)C(=O)C(=Cc2ccc(F)c(Cl)c2)C1 [Compound 1631]	–	–	1000	32	–
CC(=O)OCCC(=O)N1CCC(=Cc2ccc(Cl)cc2)C(=O)C(=Cc2ccc(Cl)cc2)C1 [Compound 1633]	–	–	2200	4	–
O=C1C(=Cc2ccc(Cl)cc2)CCN(C(=O)Cc2ccccc2)CC1=Cc1ccc(Cl)cc1 [Compound 1635]	–	–	1400	2	–
O=C1C(=Cc2ccc(Cl)cc2)CCN(C(=O)c2cccnc2)CC1=Cc1ccc(Cl)cc1 [Compound 1637]	–	–	2100	2	–
O=C1C(=Cc2ccc(Cl)cc2)CCN(C(=O)c2cccs2)CC1=Cc1ccc(Cl)cc1 [Compound 1638]	–	–	2000	2	–
CCOc1cc(CC(=O)N2CCC(=Cc3ccc(Cl)cc3)C(=O)C(=Cc3ccc(Cl)cc3)C2)ccc1O [Compound 1639]	–	–	1200	1	–
O=C1C(=Cc2ccc(C(F)(F)F)cc2)CCN(C(=O)Cc2cccnc2)CC1=Cc1ccc(C(F)(F)F)cc1 [Compound 1641]	–	–	2700	2	–
CC(=O)OCC(=O)N1CC/C(=C\c2ccc(C(F)(F)F)cc2)C(=O)/C(=C/c2ccc(C(F)(F)F)cc2)C1 [Compound 1642]	–	–	1200	1	–
